Where “and” joins values, the source holds several entries; their conditions need not be identical. Identical values can stand only once. Toxic doses and inconclusive results are not listed. Cut-off read from the data, not from the text of the source: active = T/C of 150% or more; inactive = T/C below 125%. Numbered stars: 1 amine (or outer) side, 2 acyl side, 3 side chain; on linkers, the order of the positions; unused ones are H or OH. Square brackets hold non-standard residues; d marks the D form. Peptide text beside a SMILES is read from it. γGlu = O=C(O)[CH](CCC(=O)[*:2])N[*:1]; Hpg = N[CH](C(=O)O)c1ccc(O)cc1
System: L1210 leukemia ip in BDF1 mice, survival T/C
Assay: NCI In Vivo Anticancer Drug Screen. Data for tumor model L1210 Leukemia (intraperitoneal) in B6D2F1 (BDF1) mice
Details: endpoint: mean survival time, higher = longer survival
Summary of the method: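 Ratio derived from survival: compound-dosed mice over vehicle-dosed mice, all bearing a transplantable tumor.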

[1] = dose: 100.0 mg/kg/injection, schedule: Q04DX003 (ip), vehicle: saline with Tween-80
[2] = dose: 200.0 mg/kg/injection, schedule: Q04DX003 (ip), vehicle: saline with Tween-80
[3] = dose: 400.0 mg/kg/injection, schedule: Q04DX003 (ip), vehicle: saline with Tween-80
[4] = dose: 100.0 mg/kg/injection, schedule: Q01DX001 (ip), vehicle: saline
[5] = dose: 200.0 mg/kg/injection, schedule: Q01DX001 (ip), vehicle: saline
[6] = dose: 400.0 mg/kg/injection, schedule: Q01DX001 (ip), vehicle: saline
[7] = dose: 100.0 mg/kg/injection, schedule: Q04DX002 (ip), vehicle: Klucel (hydroxypropylcellulose) (HPC)
[8] = dose: 200.0 mg/kg/injection, schedule: Q04DX002 (ip), vehicle: Klucel (hydroxypropylcellulose) (HPC)
[9] = dose: 400.0 mg/kg/injection, schedule: Q04DX002 (ip), vehicle: Klucel (hydroxypropylcellulose) (HPC)
[10] = dose: 100.0 mg/kg/injection, schedule: Q01DX009 (ip), vehicle: saline with Tween-80
[11] = dose: 200.0 mg/kg/injection, schedule: Q01DX009 (ip), vehicle: saline with Tween-80
[12] = dose: 100.0 mg/kg/injection, schedule: Q01DX009 (ip), vehicle: Klucel (hydroxypropylcellulose) (HPC)
[13] = dose: 200.0 mg/kg/injection, schedule: Q01DX009 (ip), vehicle: Klucel (hydroxypropylcellulose) (HPC)
[14] = dose: 400.0 mg/kg/injection, schedule: Q01DX009 (ip), vehicle: Klucel (hydroxypropylcellulose) (HPC)
[15] = dose: 100.0 mg/kg/injection, schedule: Q04DX003 (ip), vehicle: saline
[16] = dose: 200.0 mg/kg/injection, schedule: Q04DX003 (ip), vehicle: saline
[17] = dose: 400.0 mg/kg/injection, schedule: Q04DX003 (ip), vehicle: saline
[18] = dose: 100.0 mg/kg/injection, schedule: Q04DX003 (ip), vehicle: Klucel (hydroxypropylcellulose) (HPC)
[19] = dose: 200.0 mg/kg/injection, schedule: Q04DX003 (ip), vehicle: Klucel (hydroxypropylcellulose) (HPC)
[20] = dose: 400.0 mg/kg/injection, schedule: Q04DX003 (ip), vehicle: Klucel (hydroxypropylcellulose) (HPC)
[21] = dose: 50.0 mg/kg/injection, schedule: Q01DX009 (ip), vehicle: saline with Tween-80

Measured: T/C

CCOP(=S)(OCC)OCCN(CC)CC
inactive: dose: 5.0 mg/kg/injection, schedule: Q01DX001 (ip), vehicle: saline 101 % of control | dose: 10.0 mg/kg/injection, schedule: Q01DX001 (ip), vehicle: saline 105 % of control | dose: 20.0 mg/kg/injection, schedule: Q01DX001 (ip), vehicle: saline 105 % of control

CCC(N)(CO)CO
inactive: [1] 98 % of control | [2] 95 % of control | [3] 95 % of control

Nc1ccc(S(=O)(=O)Nc2ccc([N+](=O)[O-])cn2)cc1
inactive: [4] 101 % of control | [5] 104 % of control | [6] 98 % of control

NNC(=O)CNc1ccc(F)cc1Cl
inactive: [7] 101 % of control | [8] 105 % of control

COc1ccc2cc1Oc1ccc(cc1)CC1c3cc(c(OC)cc3CCN1C)Oc1c(OC)c(OC)c(OC)c3c1C(C2)N(C)CC3 (stereo unspecified)
inactive: [7] 102 % of control | [8] 91 % of control | [9] 94 % of control

C[S+](C)(=O)CCCS(=O)(=O)[O-]
inactive: dose: 100.0 mg/kg/injection, schedule: Q04DX002 (ip), vehicle: saline 99 % of control | dose: 200.0 mg/kg/injection, schedule: Q04DX002 (ip), vehicle: saline 92 % of control | dose: 400.0 mg/kg/injection, schedule: Q04DX002 (ip), vehicle: saline 92 % of control

CC(/C=N/NC(=O)c1cnccn1)=N/NC(=O)c1cnccn1
inactive: dose: 50.0 mg/kg/injection, schedule: Q01DX001 (ip), vehicle: water 108 % of control | dose: 100.0 mg/kg/injection, schedule: Q01DX001 (ip), vehicle: water 108 % of control | dose: 200.0 mg/kg/injection, schedule: Q01DX001 (ip), vehicle: water 103 % of control | dose: 400.0 mg/kg/injection, schedule: Q01DX001 (ip), vehicle: water 110 % of control

COc1ccc(NC(=O)/C=C/C(=O)Nc2ccc(OC)cc2)cc1
inactive: [1] 100 % of control | [2] 112 % of control | [3] 100 % of control

COc1ccc(CSSP(=S)(OC)c2ccc(OC)cc2)cc1 (stereo unspecified)
inactive: [10] 91 % of control | [11] 95 % of control | dose: 400.0 mg/kg/injection, schedule: Q01DX009 (ip), vehicle: saline with Tween-80 88 % of control

CCOCC(=O)c1c(O)cc(O)cc1O
inactive: [12] 97 % of control | [13] 92 % of control | [14] 101 % of control

CC1C2c3ccccc3C(c3ccccc32)C1S(=O)(=O)F (stereo unspecified)
inactive: [12] 97 % of control | [13] 100 % of control | [14] 106 % of control

NC(C(=O)O)C(CC(=O)O)C(=O)O (stereo unspecified)
inactive: [15] 93 % of control | [16] 95 % of control | [17] 98 % of control

CCCCCCCCCCCCCCCCCCNC(=O)Nc1ccc(C)c(Cl)c1
inactive: [7] 90 % of control | [8] 93 % of control

OCC(O)C1OC(c2ccccc2)OC1C(O)CO (stereo unspecified)
inactive: [15] 105 % of control | [16] 92 % of control | [17] 99 % of control

C/C(=N\N=C(/C)c1ccc(N)cc1)c1ccc(N)cc1
inactive: [4] 90 % of control | [6] 96 % of control

CN(C)c1ccc(N=Cc2cc[n+](C)cc2)cc1
inactive: dose: 25.0 mg/kg/injection, schedule: Q01DX009 (ip), vehicle: saline 92 % of control | dose: 50.0 mg/kg/injection, schedule: Q01DX009 (ip), vehicle: saline 100 % of control | [15] 87 % of control

CC(NC(=O)CCC(NC(=O)C(Cc1ccc(O)cc1)NC(=O)CNC(=O)C(C)NC(=O)CCC(NC(=O)C(N)c1ccc(O)cc1)C(=O)O)C(=O)O)C(=O)NCC(=O)NCC(=O)O (stereo unspecified) (H-[Hpg][γGlu]AGY[γGlu]AGG-OH; configuration not given here)
inactive: [4] 97 % of control | [5] 98 % of control | [6] 97 % of control

CC(C)(C)OOC(=O)c1ccccc1
inactive: dose: 25.0 mg/kg/injection, schedule: Q01DX009 (ip), vehicle: Klucel (hydroxypropylcellulose) (HPC) 96 % of control | dose: 50.0 mg/kg/injection, schedule: Q01DX001 (ip), vehicle: other 90 % of control | dose: 50.0 mg/kg/injection, schedule: Q01DX009 (ip), vehicle: Klucel (hydroxypropylcellulose) (HPC) 97 % of control | dose: 75.0 mg/kg/injection, schedule: Q01DX009 (ip), vehicle: Klucel (hydroxypropylcellulose) (HPC) 97 % of control and 101 % of control | dose: 100.0 mg/kg/injection, schedule: Q01DX001 (ip), vehicle: other 100 % of control | [18] 107 % of control | dose: 200.0 mg/kg/injection, schedule: Q01DX001 (ip), vehicle: other 102 % of control | [19] 115 % of control | dose: 400.0 mg/kg/injection, schedule: Q01DX001 (ip), vehicle: other 94 % of control | [20] 96 % of control

Brc1cc(Br)c2[nH]c(-c3ccccc3)cc2c1
inactive: dose: 100.0 mg/kg/injection, schedule: Q01DX001 (ip), vehicle: carboxymethylcellulose (CMC) 95 % of control | dose: 200.0 mg/kg/injection, schedule: Q01DX001 (ip), vehicle: carboxymethylcellulose (CMC) 90 % of control | dose: 400.0 mg/kg/injection, schedule: Q01DX001 (ip), vehicle: carboxymethylcellulose (CMC) 88 % of control

CC(C)=CN1CC2CCCC(CC2)C1
inactive: [18] 98 % of control | [19] 101 % of control

COC1OC(CI)C(OC(=O)c2ccccc2)C(OC(=O)c2ccccc2)C1OC(=O)c1ccccc1 (stereo unspecified)
inactive: [7] 101 % of control | [8] 93 % of control | [9] 121 % of control

CNC(=O)Nc1ccc(S(=O)(=O)Nc2nc(C)cc(C)n2)cc1
inactive: [21] 96 % of control | [10] 96 % of control | [11] 93 % of control

CCCCCCCCCC(=O)N/N=C/c1cccnc1
inactive: dose: 100.0 mg/kg/injection, schedule: Q01DX009 (ip), vehicle: other 96 % of control | dose: 200.0 mg/kg/injection, schedule: Q01DX009 (ip), vehicle: other 86 % of control | dose: 400.0 mg/kg/injection, schedule: Q01DX009 (ip), vehicle: other 86 % of control

CC(=O)NCC(O)c1ccccc1 (stereo unspecified)
inactive: [4] 94 % of control | [5] 100 % of control | [6] 91 % of control

COc1ccc(C(=O)/C(C)=N/O)cc1
inactive: [4] 103 % of control | [5] 103 % of control | [6] 101 % of control

Cc1cc(N=NC(=N)N)ccc1NN=C(N)N
inactive: dose: 37.5 mg/kg/injection, schedule: Q01DX Z (oral), vehicle: carboxymethylcellulose (CMC) 115 % of control | dose: 75.0 mg/kg/injection, schedule: Q01DX Z (oral), vehicle: carboxymethylcellulose (CMC) 100 % of control | dose: 150.0 mg/kg/injection, schedule: Q01DX Z (oral), vehicle: carboxymethylcellulose (CMC) 96 % of control | dose: 300.0 mg/kg/injection, schedule: Q01DX Z (oral), vehicle: carboxymethylcellulose (CMC) 102 % of control

C(=C\C1SCCCS1)/c1ccccc1
inactive: dose: 100.0 mg/kg/injection, schedule: Q04DX002 (ip), vehicle: saline with Tween-80 101 % of control | dose: 200.0 mg/kg/injection, schedule: Q04DX002 (ip), vehicle: saline with Tween-80 114 % of control | dose: 400.0 mg/kg/injection, schedule: Q04DX002 (ip), vehicle: saline with Tween-80 101 % of control

CCOCC(=O)CC1=CCCCC1
inactive: [21] 94 % of control | [10] 102 % of control | [11] 94 % of control

CC(C)=NNC(=O)c1ccc(N)cc1
inactive: [10] 91 % of control | [11] 101 % of control

COC(=O)c1ccc(N(C)CCC(=O)CN)cc1
inactive: [4] 98 % of control | [5] 101 % of control | [6] 104 % of control

COc1ccc(OC)c(NC(=O)SCCSC(=O)Nc2cc(OC)ccc2OC)c1
inactive: [12] 92 % of control | [13] 91 % of control | [14] 92 % of control

NC(=O)N/N=C1/CCCC(C(=O)O)C1 (stereo unspecified)
inactive: dose: 100.0 mg/kg/injection, schedule: Q01DX001 (ip), vehicle: Klucel (hydroxypropylcellulose) (HPC) 105 % of control | [18] 102 % of control | dose: 200.0 mg/kg/injection, schedule: Q01DX001 (ip), vehicle: Klucel (hydroxypropylcellulose) (HPC) 109 % of control | [19] 98 % of control | dose: 400.0 mg/kg/injection, schedule: Q01DX001 (ip), vehicle: Klucel (hydroxypropylcellulose) (HPC) 103 % of control | [20] 100 % of control

NC(=O)c1ccccc1NC(=O)Nc1c(Cl)cccc1Cl
inactive: [12] 94 % of control | [13] 106 % of control | [14] 120 % of control

— PubChem BioAssay AID248 (DTP/NCI, 2004)
